According to US8329686B2, “Isatin analogues and uses therefor” (Washington University, priority 2006, dated 2012):

What was measured:
Type in all cases: biochemical
[1] = biological target: T1, caspase 7 (Homo sapiens, UniProt P55210); experiment: Enzyme inhibition assay, caspase 7 (fluorogenic Ac-DEVD-AMC); settings: Table 6; read-out: IC50 (nM) caspase-7
T1 construct: purchased Sigma-Aldrich (St. Louis, Mo.)
T1 sequence (P55210 24-198 limits assumed): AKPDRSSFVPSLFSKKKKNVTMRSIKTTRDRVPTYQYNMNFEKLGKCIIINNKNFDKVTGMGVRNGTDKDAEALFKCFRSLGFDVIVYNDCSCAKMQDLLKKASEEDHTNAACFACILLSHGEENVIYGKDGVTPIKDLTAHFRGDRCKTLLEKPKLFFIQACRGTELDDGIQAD
T1 sequence (P55210 207-303 limits assumed): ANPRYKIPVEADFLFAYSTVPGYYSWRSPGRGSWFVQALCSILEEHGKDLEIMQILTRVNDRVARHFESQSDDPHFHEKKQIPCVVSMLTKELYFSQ
Experimental: (§1) Enzyme Assays. Inhibition of recombinant human caspase-3 and other caspases by the isatin analogues was assessed using a fluorometric assay by measuring the accumulation of a fluorogenic product, 7-amino-4-methylcoumarin (7-AMC).
(§2) Enzyme Inhibition Assays. Recombinant human caspases (3, 6, 7, and 8) and their peptide-specific substrates (Ac-DEVDAMC, Ac-VEID-AMC, Ac-DEVD-AMC, and Ac-IETD-AMC, respectively) were purchased from Sigma-Aldrich (St. Louis, Mo.) with the exception of caspase 1 and its substrate (Ac-YVAD-AMC), which were obtained from BIOMOL Research Laboratories (Plymouth Meeting, Pa.). The enzymatic activity of caspases was determined by measuring the accumulation of the fluorogenic product 7-amino-4-methylcoumarin (AMC). All assays were prepared in 96-well format at a volume of 210 μL per well and consisted of 100 mM Na+ HEPES (pH 7.4), 10% sucrose, 100 mM NaCl, 0.1% CHAPS, 5 mM 2-mercaptoethanol, 2 mM EDTA, 10 μM Ac-YVAD-AMC (caspase 1); 20 mMNa^+ HEPES (pH 7.4), 10% sucrose, 100 mMNaCl, 0.1% CHAPS, 2 mM EDTA, 10 μM Ac-DEVD-AMC (caspase 3); 20 mM Na^+ HEPES (pH 7.4), 10% sucrose, 100 mM NaCl, 0.1% CHAPS, 2 mM EDTA, 10 μM Ac-VEID-AMC (caspase 6); 20 mM Na+ HEPES (pH 7.4), 100 mM NaCl, 10% sucrose, 0.1% CHAPS, 5 mM 2-mercaptoethanol, 2 mM EDTA, 10 μM Ac-DEVD-AMC (caspase 7); 20 mM Na+ HEPES (pH 7.4), 10% sucrose, 100 mM NaCl, 0.1% CHAPS, 2 mM EDTA, 10 μM Ac-IETD-AMC (caspase 8).
(§3) Recombinant caspases were first assayed to determine the optimal concentration for each experiment. Optimal concentrations were based in the linear range of the enzyme activation curves. Peptide inhibitors with known IC50 values were tested together with the compounds as a control for each caspase assay. […] Peptide and nonpeptide inhibitors were dissolved in DMSO, and a 2 serial dilution was performed prior to screening in order to obtain desired concentrations. 10 μL was added to each well containing 100 μL caspase solution and allowed to incubate on ice for 30 min. […] The final concentration of DMSO in all wells was 5% of the total volume. In caspase-1 and caspase-7 assays, 10 mM 2-mercaptoethanol was added to the substrate solution for full activation of the enzymes.
(§4) Compounds were tested in duplicate, and IC50 curves were calculated for all inhibitors assayed. Final IC50s were the average of three independent experiments.

[2] = biological target: T2, caspase 8 (Homo sapiens, UniProt Q14790); experiment: Enzyme inhibition assay, caspase 8 (fluorogenic Ac-IETD-AMC); settings: Table 6; read-out: IC50 (nM) caspase-8
T2 construct: purchased Sigma-Aldrich (St. Louis, Mo.)
Experimental: as §1, §2, §3, §4

[3] = biological target: T3, caspase-3 (Homo sapiens, UniProt P42574); experiment: Enzyme kinetic studies versus Ac-DEVD-AMC
T3 construct: purchased Sigma-Aldrich (St. Louis, Mo.)
T3 sequence (P42574 29-175 limits assumed): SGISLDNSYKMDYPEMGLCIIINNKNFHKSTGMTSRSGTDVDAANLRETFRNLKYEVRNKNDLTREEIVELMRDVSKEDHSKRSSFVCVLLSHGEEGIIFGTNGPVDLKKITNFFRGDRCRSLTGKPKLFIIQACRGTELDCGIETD
T3 sequence (P42574 176-277 limits assumed): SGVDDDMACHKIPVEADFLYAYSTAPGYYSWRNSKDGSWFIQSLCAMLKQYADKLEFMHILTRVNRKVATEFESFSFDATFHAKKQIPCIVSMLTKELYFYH
Experimental: Enzyme Kinetic Studies. The inhibition profile for compound 21c was determined for caspase-3 in the assay buffer. The concentration of Ac-DEVD-AMC was varied from 6.25 to 100 μM, and the concentration of 21c was varied from 0 to 20 nM. The kinetic parameters of 21c were obtained by fitting initial-rate data to
[formula] where v is the observed velocity, S is the substrate concentration, Vm is the velocity at saturating substrate, Km is the Michaelis constant of the substrate, I is the inhibitor concentration, and Ki is the dissociation constant of the inhibitor from the E·I complex. The data were analyzed using GraFit 4.0 (Erithacus Software, Staines, U.K.)
Kinetic studies were also conducted in order to determine the mechanism of inhibition of caspase-3 activity by compound 21c.

[4] = biological target: T3, caspase-3; experiment: Enzyme inhibition assay, caspase 3 (fluorogenic Ac-DEVD-AMC); settings: read-out: IC50 for caspase-3
[5] = biological target: T4, caspase 1 (Homo sapiens, UniProt P29466); experiment: Enzyme inhibition assay, caspase 1 (fluorogenic Ac-YVAD-AMC); settings: Table 6; read-out: IC50 (nM) caspase-1
T4 construct: purchased BIOMOL Research Laboratories (Plymouth Meeting, Pa.)
T4 sequence (P29466 120-297 limits assumed): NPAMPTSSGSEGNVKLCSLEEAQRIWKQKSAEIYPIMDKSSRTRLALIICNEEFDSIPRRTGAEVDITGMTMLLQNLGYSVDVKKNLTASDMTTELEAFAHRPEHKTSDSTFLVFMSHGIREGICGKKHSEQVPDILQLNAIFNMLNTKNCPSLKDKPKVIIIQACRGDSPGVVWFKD
T4 sequence (P29466 317-404 limits assumed): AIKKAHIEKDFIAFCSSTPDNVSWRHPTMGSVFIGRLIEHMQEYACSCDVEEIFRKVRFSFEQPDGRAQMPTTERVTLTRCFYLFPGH

[6] = biological target: T5, caspase 6 (Homo sapiens, UniProt P55212); experiment: Enzyme inhibition assay, caspase 6 (fluorogenic Ac-VEID-AMC); settings: Table 6; read-out: IC50 (nM) caspase-6
T5 construct: purchased Sigma-Aldrich (St. Louis, Mo.)
T5 sequence (P55212 24-179 limits assumed): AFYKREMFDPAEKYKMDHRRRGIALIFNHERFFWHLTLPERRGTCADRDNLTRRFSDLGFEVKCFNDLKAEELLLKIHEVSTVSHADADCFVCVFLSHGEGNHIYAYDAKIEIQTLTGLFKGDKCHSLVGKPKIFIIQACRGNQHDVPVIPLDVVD
T5 sequence (P55212 194-293 limits assumed): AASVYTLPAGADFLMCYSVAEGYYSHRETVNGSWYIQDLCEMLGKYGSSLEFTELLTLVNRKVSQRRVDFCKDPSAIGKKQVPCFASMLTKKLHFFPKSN
Experimental: as §1, §2, §3, §4

T2 sequence (Q14790 217-374 limits assumed): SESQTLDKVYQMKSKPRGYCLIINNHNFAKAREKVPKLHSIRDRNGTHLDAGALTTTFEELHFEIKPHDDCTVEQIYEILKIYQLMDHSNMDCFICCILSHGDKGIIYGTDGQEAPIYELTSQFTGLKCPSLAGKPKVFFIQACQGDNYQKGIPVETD
T2 sequence (Q14790 385-479 limits assumed): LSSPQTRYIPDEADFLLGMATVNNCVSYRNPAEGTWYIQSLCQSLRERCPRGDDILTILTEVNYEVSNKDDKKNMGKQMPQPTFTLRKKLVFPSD

Q: Which IC50 [1] does the source give for COc1ccc(CN2C(=O)C(=O)c3cc(S(=O)(=O)N4CCCC4COc4cccnc4)ccc32)cc1 (stereo not shown) [Compound 21c, 1-(4-Methoxybenzyl)-5-(2-(pyridin-3-yl-oxymethyl)-pyrrolidine-1-sulfonyl)-1H-indole-2,3-dione] here?
A: Its IC50 is 15.1 ± 1.2 nM.

Q: What about the IC50 [2] of the same molecule?
A: The IC50 was > 50000 nM.

Q: What about the Ki ([3]; competitive versus Ac-DEVD-AMC, read-out: calculated Ki value) of the same molecule?
A: The Ki was 4.4 nM.

Q: What about the “mechanism of inhibition of caspase-3 activity” value ([3]; versus Ac-DEVD-AMC) of the same molecule?
A: Its value is “competitive inhibition”.

Q: And the IC50 [4]?
A: The IC50 was 3.9 nM.

Q: What about the IC50 [5] of the same molecule?
A: Its IC50 is > 10000 nM.

Q: And the IC50 [6]?
A: The IC50 was > 5000 nM.
